Test results reported in patent publication US20150150878A1, “Methods For Inhibiting Viruses By Targeting Cathepsin-L Cleavage Sites In The Viruses' Glycoproteins” (priority 2012, published 2015).
Values joined by “and” are separate entries in the source; they are usually repeats but may differ in a detail not shown here. Equal entries are not always repeated. Structures can show the parent of a compound that is named as a salt. Where two headings read alike, the source gives them in different places. Residues, ends and D or L forms follow the SMILES beside them. *: point of attachment. Cbz = O=C(OCc1ccccc1)*

Columns and labels:
[1] = test system: SARS-CoV-S pseudotyped virus; test: microbe, parasite or virus in culture; format: cell-based; conditions: for IC50: read-out: IC50 against SARS-CoV-S pseudotyped virus; for inhibition at 10 µM: read-out: inhibition of SARS-CoV pseudotyped virus entry
cathepsin L [2] = biological target: T1, cathepsin L (Homo sapiens, UniProt P07711); format: biochemical
T1 sequence (P07711 114-333): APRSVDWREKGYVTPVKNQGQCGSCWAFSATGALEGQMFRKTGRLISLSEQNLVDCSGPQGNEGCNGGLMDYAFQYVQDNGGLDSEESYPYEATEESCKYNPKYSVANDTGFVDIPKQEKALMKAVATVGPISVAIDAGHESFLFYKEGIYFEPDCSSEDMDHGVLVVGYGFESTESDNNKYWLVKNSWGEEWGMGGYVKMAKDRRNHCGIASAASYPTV

[3] = test system: EBOV-GP pseudotyped virus; test: microbe, parasite or virus in culture; format: cell-based, Ebola virus; conditions: for IC50: read-out: IC50 against EBOV pseudotyped virus; for inhibition at 10 µM: read-out: inhibition of EBOV pseudotyped virus entry
[4] = test system: SARS-CoV pseudotyped virus; format: cell-based
cathepsin L [5] = biological target: T1, cathepsin L; format: biochemical; design: human cathepsin L purified from human liver (Sigma Aldrich); purchased Sigma Aldrich; host or cells: human liver (tissue-purified)
cathepsin L [6] = biological target: T1, cathepsin L; format: biochemical; design: human cathepsin L purified from human liver (Sigma Aldrich); purchased Sigma Aldrich; host or cells: human liver (tissue-purified); remark: listed apart in the source
cathepsin L [7] = biological target: T1, cathepsin L; format: biochemical; design: human cathepsin L purified from human liver (Sigma Aldrich); purchased Sigma Aldrich; host or cells: human liver (tissue-purified); remark: listed apart in the source
cathepsin L [8] = biological target: T1, cathepsin L; format: biochemical; design: human cathepsin L purified from human liver (Sigma Aldrich); purchased Sigma Aldrich; host or cells: human liver (tissue-purified); remark: listed apart in the source
cathepsin L [9] = biological target: T1, cathepsin L; format: biochemical; design: human cathepsin L purified from human liver (Sigma Aldrich); purchased Sigma Aldrich; host or cells: human liver (tissue-purified); remark: listed apart in the source
cathepsin L [10] = biological target: T1, cathepsin L; format: biochemical; remark: listed apart in the source
[11] = Severe acute respiratory syndrome coronavirus, 72 h

Row | Structure (SMILES) | cytotoxic effect on 293FT cells (293FT cells) | inhibition of SARS-CoV pseudotyped virus entry [4] | Inhibition of cleavage of NPY peptide by Cathepsin-L (cathepsin L [5]) | percentage inhibition against human Pro-NPY peptide (cathepsin L [5]) | Inhibition of cleavage of Hendra peptide by Cathepsin-L (cathepsin L [6]) | percentage inhibition against Hendra peptide (cathepsin L [6]) | inhibition at 10 µM [1, 11] | inhibition at 10 µM ([3]; Zaire ebolavirus, 72 h) | Inhibition of cleavage of Nipah peptide by Cathepsin-L (cathepsin L [7]) | percentage inhibition against Nipah peptide (cathepsin L [7]) | Inhibition of cleavage of Ebola peptide by Cathepsin-L (cathepsin L [8]) | percentage inhibition against Ebola peptide (cathepsin L [8]) | Inhibition of cleavage of SARS peptide by Cathepsin-L (cathepsin L [9]) | percentage inhibition against SARS peptide (cathepsin L [9]) | also measured
1 | CCNc1nc(NC(C)(C)C)nc(N(C#N)CC(=O)OC)n1 [Compound 7402683, methyl 2-(N-(4-(tert-butylamino)-6-(ethylamino)-1,3,5-triazin-2-yl)cyanamido)acetate] | no significant cytotoxicity |  |  |  |  |  |  |  |  |  |  |  |  |  | inhibition of SARS-CoV pseudotyped virus entry ([1]; 10 µM): 68.3%; IC50 [1]: 6 µM; inhibition of Cat L mediated cleavage of SARS-CoV-S-flag protein (cathepsin L [2]): dose dependent inhibition; inhibition of EBOV pseudotyped virus entry ([3]; 10 µM): 53.3%; IC50 [3]: 10 µM
2 | O=C[C@H](Cc1ccc(O)cc1)NC(=O)[C@H](Cc1ccccc1)NC(=O)OCc1ccccc1 [cathepsin L inhibitor, Z-Phe-Tyr-CHO] (Cbz-Phe-Tyr-aldehyde) |  | 60% and 58% |  |  |  |  |  |  |  |  |  |  |  |  | 
3 | N#Cc1ccc(NC(=O)Nc2ccc(Cl)cc2)cc1 [Compound 7910528, 1-(4-chlorophenyl)-3-(4-cyanophenyl)urea] |  |  | 6.5% | 6.5% | 12.1% | 12.1% | 30.3% | 23.3% | 57.8% | 57.8% | 33.4% | 35% | 56.5% | 56.5% | 
4 | O=c1[nH]c2ccc(S(=O)(=O)Nc3ccc(Cl)c(Cl)c3)cc2o1 [Compound 7914021, N-(3,4-dichlorophenyl)-2-oxo-2,3-dihydrobenzo[d]oxazole-6-sulfonamide] | toxic |  | 13.1% | 21.9% | 25.4% | 52.2% | 27.1% | 51.5% | 53.6% | 82% | 36% | 83.8% | 71.7% | 85.2% | cytotoxicity (293FT cells; human): 20-100%
5 | O=C(Nc1cccc(C(F)(F)F)c1)Nc1ccc(Cl)c(Cl)c1 [Compound 5182554, 1-(3,4-dichlorophenyl)-3-(3-(trifluoromethyl)phenyl)urea] | toxic |  | 7.4% | 14.8% | 49.4% | 50.9% | 49.3% | 60.5% | 44% | 56.5% | 31% | 77% | 78.1% | 72.6% | cytotoxicity (293FT cells; human): 20-100%
6 | COC(=O)CN(C#N)c1nc(NC(C)C)nc(NC(C)C)n1 [Compound 5705213, methyl 2-(N-(4,6-bis(isopropylamino)-1,3,5-triazin-2-yl)cyanamido)acetate] |  | 50% and 60% | 18% | 20% | 84.3% | 94.2% | 64.7% | 39.8% | 76.3% | 90.7% | 42% | 81.3% | 79.8% | 90.1% | change of Vmax in presence of the inhibitor (cathepsin L [10]): decrease; mechanism of inhibition (cathepsin L [10]): mixed inhibitor; cell viability (293FT cells; human): over 80%; IC50 [1, 11]: 9 µM; inhibition of Cat L mediated cleavage of SARS-CoV-S-flag protein (cathepsin L [2]): dose dependent inhibition; IC50 ([3]; Zaire ebolavirus, 72 h): 15 µM
7 | CN(C)C(=O)COC(=O)Cc1ccc(OC(=O)c2ccc(NC(=N)N)cc2)cc1 [protease inhibitor, Camostat mesylate] |  | 70% |  |  |  |  |  |  |  |  |  |  |  |  | 
